pIC50: −log10 of the molar value. Counter-ions that a name gives are not always drawn.
Legend:
[1] = biological target: T1, ROCKII (1-543) (Homo sapiens, UniProt O75116); test: Luciferin-Luciferase Assay (PKLight ATP detection); assay type: biochemical; design: ROCKII (1-543) (62,408 Da) was diluted in assay buffer; details: 7.5 nM ROCKII (1-543), 750 nM ATP
Procedure: 1. Luciferin-Luciferase Assay
The activity of ROCKII (1-543) kinase was measured utilizing Cambrex PKLight ATP Detection Reagent, a homogeneous assay technology using luciferin-luciferase to quantify residual ATP. The assay was performed in 384-well low-volume, white, non-binding surface microtiter plates (Corning). The assay buffer was 25 mM HEPES, pH 7.5, 10 mM MgCl2, 50 mM KCl, 0.2% BSA, 0.01% CHAPS, 100 μM Na3VO4 and 0.5 mM DTT. Test compounds, dissolved in neat DMSO at 500 μg/mL, were serially diluted for dose response for a final starting concentration of 3 μg/mL in 1% DMSO of assay buffer. ROCKII (1-543) (62,408 Da) was diluted in assay buffer to a final concentration of 7.5 nM in a total volume of 15 μL. Positive controls were reaction mixtures containing no test compound; negative controls (blanks) were reaction mixtures containing no kinase. After 15 minutes of pre-incubation of the test compounds with the kinase, a mixture of ATP and peptide substrate (AKRRRLSSLRA) in assay buffer was added to each well for a final concentration of 750 nM ATP and 500 nM peptide, respectively. After 90 minutes of incubation of the kinase reaction at 28° C. temperature, 10 μL of PKLight ATP Detection Reagent (warmed to room temperature previously) was added to each well. The assay plate was incubated at room temperature for additional 15 minutes and then read on an Analyst in luminescence mode. Dose-response experiments for each of the test compounds were conducted in quadruplet. IC50 values of test compounds represent 50% response of the positive control from the dose-response curve.
Target sequence in this assay (O75116 1-543): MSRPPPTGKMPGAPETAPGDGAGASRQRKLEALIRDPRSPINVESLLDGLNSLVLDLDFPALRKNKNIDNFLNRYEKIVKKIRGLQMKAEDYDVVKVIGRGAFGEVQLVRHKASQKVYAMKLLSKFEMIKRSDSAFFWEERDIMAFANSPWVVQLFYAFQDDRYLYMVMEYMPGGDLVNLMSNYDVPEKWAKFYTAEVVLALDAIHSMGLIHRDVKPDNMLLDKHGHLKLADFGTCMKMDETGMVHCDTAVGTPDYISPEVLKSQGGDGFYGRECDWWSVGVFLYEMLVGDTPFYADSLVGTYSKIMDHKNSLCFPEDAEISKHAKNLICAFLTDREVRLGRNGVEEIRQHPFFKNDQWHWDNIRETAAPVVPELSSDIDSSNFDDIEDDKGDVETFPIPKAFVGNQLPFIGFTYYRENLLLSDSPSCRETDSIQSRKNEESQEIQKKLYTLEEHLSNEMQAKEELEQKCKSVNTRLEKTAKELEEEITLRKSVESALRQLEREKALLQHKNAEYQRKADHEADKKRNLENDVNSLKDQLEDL

[2] = biological target: T1, ROCKII (1-543); test: IMAP Assay (fluorescence polarization, FAM S6 peptide); assay type: biochemical; design: 3 nM ROCKII (1-543) diluted in kinase reaction buffer; details: IMAP FP, 1 nM ROCKII (1-543), 100 μM ATP; read-out: Assay 2 IC50
Procedure: This assay is performed using FAM S6 substrate peptide (Catalogue #R7184) and IMAP FP Screening Express Kit detection reagents from Molecular Devices (Sunnyvale, Calif.) in IMAP kinase reaction buffer (Tris-HCl, pH 7.2, 10 mM MgCl2, 0.05% NaN3, 0.1% phosphate-free BSA) containing 1 mM DTT. Test compounds dissolved in neat DMSO at 0.3 mg/mL are serially diluted 1 to 3 for concentration response in 100% DMSO. The DMSO serial dilutions are further diluted 33.33-fold in kinase reaction buffer, and 10 μL of this buffer dilution is transferred to Corning black 96-well half area NBS plates for a final top concentration of 3 μg/mL in 1% DMSO. 10 μL aliquot of 3 nM ROCKII (1-543) diluted in kinase reaction buffer is added to each assay well for a final concentration of 1 nM kinase. 10 μL of a mixture of 600 nM FAM S6 peptide and 300 μM ATP diluted in kinase reaction buffer is added to each well for a final concentration of 200 nM peptide and 100 μM ATP. The kinase reaction mixture is incubated for 60 minutes at room temperature. Positive controls are reaction mixtures containing no test compound and negative controls (blanks) are reaction mixtures containing no kinase. The kinase reaction is stopped by addition of 60 μL IMAP progressive binding reagent (Catalog #R7284) diluted 400-fold in 1× Binding buffer A. After 30 min of incubation at room temperature, the plates are read for fluorescence polarization on Analyst Plate Reader using Ex 485 nm, Em 530 nm, and FL 505 dichroic mirror. The mP signals are converted to percent of control (POC) values using the formula: POC=100*(Signal−BCTRL)÷(PCTRL−BCTRL)
Where Signal is the test well signal, BCTRL is the average of background (negative control) well signals on the plate and PCTRL is the average of positive control well signals on the plate. For the concentration-responsive compounds, POC as a function of test compound concentration is fitted to a 4-parameter logistic equation of the form: Y=A+(B−A)/[1+(x/C)D]
Where A, B, C, and D are fitted parameters (parameter B is fixed at zero POC), and x and y are the independent and dependent variables, respectively. The IC50 is determined as the inflection point parameter, C.
Target sequence in this assay (O75116 1-543, species assumed): as the sequence (O75116 1-543) above

pIC50 [1] | pIC50 [2] | SMILES
8.32 | 7.27 | CN1CCc2nc(NC(=O)c3cccc(CN4CCN(c5ccc(C#N)cc5)C4=O)c3)sc2C1 [Compound 1, 3-[3-(4-Cyano-phenyl)-2-oxo-imidazolidin-1-ylmethyl]-N-(5-methyl-4,5,6,7-tetrahydro-thiazolo[5,4-c]pyridin-2-yl)-benzamide]
8.55 | 7.96 | CN1CCc2nc(NC(=O)c3cccc(Cn4cc(-c5ccc(C#N)cc5)nn4)c3)sc2C1 [Compound 2, 3-[4-(4-Cyano-phenyl)-[1,2,3]triazol-1-ylmethyl]-N-(5-methyl-4,5,6,7-tetrahydro-thiazolo[5,4-c]pyridin-2-yl)-benzamide]
8.70 | 9.17 | CN(C)[C@H]1CCc2nc(NC(=O)c3cccc(CN4CCN(c5ccc(C#N)cc5)C4=O)c3)sc2C1 [Compound 3, 3-[3-(4-Cyano-phenyl)-2-oxo-imidazolidin-1-ylmethyl]-N—((S)-6-dimethylamino-4,5,6,7-tetrahydro-benzothiazol-2-yl)-benzamide]
8.70 | 8.89 | N#Cc1ccc(N2CCN(Cc3cccc(C(=O)Nc4nc5c(s4)C[C@@H](N4CCOCC4)CC5)c3)C2=O)cc1 [Compound 6, 3-[3-(4-Cyano-phenyl)-2-oxo-imidazolidin-1-ylmethyl]-N—((S)-6-morpholin-4-yl-4,5,6,7-tetrahydro-benzothiazol-2-yl)-benzamide]
8.57 | 9.06 | N#Cc1ccc(-c2cn(Cc3cccc(C(=O)Nc4nc5c(s4)C[C@@H](N4CCOCC4)CC5)c3)cn2)cc1 [Compound 10, 3-[4-(4-Cyano-phenyl)-imidazol-1-ylmethyl]-N—((S)-6-morpholin-4-yl-4,5,6,7-tetrahydro-benzothiazol-2-yl)-benzamide]
8.34 | 8.62 | N#Cc1ccc(-c2cnn(Cc3cccc(C(=O)Nc4nc5c(s4)CC(N4CCC(F)(F)CC4)CC5)c3)c2)cc1 (stereo not shown) [Compound 15, 3-[4-(4-Cyano-phenyl)-pyrazol-1-ylmethyl]-N-[6-(4,4-difluoro-piperidin-1-yl)-4,5,6,7-tetrahydro-benzothiazol-2-yl]-benzamide trifluoroacetate]
8.66 | 9.18 | N#Cc1ccc(-c2cnn(Cc3cccc(C(=O)Nc4nc5c(s4)CC(N4CCC(F)CC4)CC5)c3)c2)cc1 (stereo not shown) [Compound 18, 3-[4-(4-Cyano-phenyl)-pyrazol-1-ylmethyl]-N-[6-(4-fluoro-piperidin-1-yl)-4,5,6,7-tetrahydro-benzothiazol-2-yl]-benzamide trifluoroacetate]
8.66 | 8.96 | N#Cc1ccc(-c2cn(Cc3cccc(C(=O)Nc4nc5c(s4)C[C@@H](NCCC(F)(F)F)CC5)c3)nn2)cc1 [Compound 22, 3-[4-(4-Cyano-phenyl)-[1,2,3]triazol-1-ylmethyl]-N—[(S)-6-(3,3,3-trifluoro-propylamino)-4,5,6,7-tetrahydro-benzothiazol-2-yl]-benzamide]
8.51 | 8.59 | COCCN(C)C1CCc2nc(NC(=O)c3cccc(Cn4cc(-c5ccc(C#N)cc5)nn4)c3)sc2C1 (stereo not shown) [Compound 24, 3-[4-(4-Cyano-phenyl)-[1,2,3]triazol-1-ylmethyl]-N-{6-[(2-methoxy-ethyl)-methyl-amino]-4,5,6,7-tetrahydro-benzothiazol-2-yl}-benzamide]
8.37 | 8.41 | C[C@@H]1CN(C2CCc3nc(NC(=O)c4cccc(Cn5cc(-c6ccc(C#N)cc6)cn5)c4)sc3C2)C[C@H](C)O1 (stereo partly drawn) [Compound 26, 3-[4-(4-Cyano-phenyl)-pyrazol-1-ylmethyl]-N-[6-((2R,6S)-2,6-dimethyl-morpholin-4-yl)-4,5,6,7-tetrahydro-benzothiazol-2-yl]-benzamide]
8.51 | 8.41 | C[C@@H]1CN(C2CCc3nc(NC(=O)c4cccc(Cn5cc(-c6ccc(C#N)cc6)nn5)c4)sc3C2)C[C@H](C)O1 (stereo partly drawn) [Compound 27, 3-[4-(4-Cyano-phenyl)-[1,2,3]triazol-1-ylmethyl]-N-[6-((2S,6R)-2,6-dimethyl-morpholin-4-yl)-4,5,6,7-tetrahydro-benzothiazol-2-yl]-benzamide]
8.66 |  | N#Cc1ccc(-c2cn(Cc3cccc(C(=O)Nc4nc5c(s4)C[C@H](N)CC5)c3)nn2)cc1 [Compound 58, N—((R)-6-Amino-4,5,6,7-tetrahydro-benzothiazol-2-yl)-3-[4-(4-cyano-phenyl)-[1,2,3]triazol-1-ylmethyl]-benzamide]
8.14 |  | CN(CC(F)F)C1CCc2nc(NC(=O)c3cccc(Cn4cc(-c5ccc(C#N)cc5)cn4)c3)sc2C1 (stereo not shown) [Compound 59, 3-[4-(4-Cyano-phenyl)-pyrazol-1-ylmethyl]-N-{6-[(2,2-difluoro-ethyl)-methyl-amino]-4,5,6,7-tetrahydro-benzothiazol-2-yl}-benzamide]
8.70 |  | COCCN(C)[C@@H]1CCc2nc(NC(=O)c3cccc(Cn4cc(-c5ccc(C#N)cc5)cn4)c3)sc2C1 [Compound 64, 3-[4-(4-Cyano-phenyl)-pyrazol-1-ylmethyl]-N-{(R)-6-[(2-methoxy-ethyl)-methyl-amino]-4,5,6,7-tetrahydro-benzothiazol-2-yl}-benzamide]
8.72 |  | COCCN[C@@H]1CCc2nc(NC(=O)c3cccc(Cn4cc(-c5ccc(C#N)cc5)nn4)c3)sc2C1 [Compound 65, 3-[4-(4-Cyano-phenyl)-[1,2,3]triazol-1-ylmethyl]-N—[(R)-6-(2-methoxy-ethylamino)-4,5,6,7-tetrahydro-benzothiazol-2-yl]-benzamide]
8.19 |  | COCCN(C)[C@@H]1CCc2nc(NC(=O)c3cccc(Cn4cc(-c5ccc(C#N)cc5)nn4)c3)sc2C1 [Compound 66, 3-[4-(4-Cyano-phenyl)-[1,2,3]triazol-1-ylmethyl]-N-{(R)-6-[(2-methoxy-ethyl)-methyl-amino]-4,5,6,7-tetrahydro-benzothiazol-2-yl}-benzamide]
8.35 |  | CN(C1CC1)C1CCc2nc(NC(=O)c3cccc(Cn4cc(-c5ccc(C#N)cc5)cn4)c3)sc2C1 (stereo not shown) [Compound 67, 3-[4-(4-Cyano-phenyl)-pyrazol-1-ylmethyl]-N-[6-(cyclopropyl-methyl-amino)-4,5,6,7-tetrahydro-benzothiazol-2-yl]-benzamide]
8.14 |  | CN(C1CC1)C1CCc2nc(NC(=O)c3cccc(Cn4cc(-c5ccc(C#N)cc5)nn4)c3)sc2C1 (stereo not shown) [Compound 68, 3-[4-(4-Cyano-phenyl)-[1,2,3]triazol-1-ylmethyl]-N-[6-(cyclopropyl-methyl-amino)-4,5,6,7-tetrahydro-benzothiazol-2-yl]-benzamide]
8.14 |  | N#Cc1ccc(-c2cnn(Cc3cccc(C(=O)Nc4nc5c(s4)CC(N4CCCC(F)(F)C4)CC5)c3)c2)cc1 (stereo not shown) [Compound 71, 3-[4-(4-Cyano-phenyl)-pyrazol-1-ylmethyl]-N-[6-(3,3-difluoro-piperidin-1-yl)-4,5,6,7-tetrahydro-benzothiazol-2-yl]-benzamide]
8.07 |  | N#Cc1ccc(-c2cnn(Cc3cccc(C(=O)Nc4nc5c(s4)CC(N4CCC(F)(F)C4)CC5)c3)c2)cc1 (stereo not shown) [Compound 73, 3-[4-(4-Cyano-phenyl)-pyrazol-1-ylmethyl]-N-[6-(3,3-difluoro-pyrrolidin-1-yl)-4,5,6,7-tetrahydro-benzothiazol-2-yl]-benzamide]

— US9000154B2, “Rho kinase inhibitors” (Boehringer Ingelheim International GmbH, priority 2010, dated 2015)
